Data as given in publication PMC10302582, “Unveiling the Potential of BenzylethyleneAryl–Urea Scaffolds for the Design of New Onco Immunomodulating Agents” (Pharmaceuticals, 2023).

Columns and labels:
[1] = tested on: HT-29 (colon adenocarcinoma); assay: MTT cell proliferation assay, HT-29; format: cell-based; conditions: Homo sapiens, HT-29; MTT, 48 h treatment; read-out: IC50 HT-29
Description: (§1) After the supernatant was discarded, we solved the formazan crystal in 100 µL of DMSO. The absorbance was then registered at 550 nm using a plate lector. For all concentrations of any compound, cell viability was expressed as the percentage of the ratio between the mean absorbance of the treated cells and the mean absorbance of the untreated cells. Three to five experiments were performed to establish the IC50 values (i.e., concentration half inhibiting cell proliferation, we used GraphPad Prism 7 software).

[2] = tested on: A-549 (pulmonary adenocarcinoma); assay: MTT cell proliferation assay, A-549; format: cell-based; conditions: Homo sapiens, A549; MTT, 48 h treatment; read-out: IC50 A-549
Description: as §1

[3] = tested on: HEK-293 (human embryonic kidney cells); assay: MTT cell proliferation assay, HEK-293; format: cell-based; conditions: HEK293, 48 h treatment
Description: (§2) The action on cell proliferation caused by our developed compounds was studied using an MTT assay using the human tumor cell lines of HT-29 (colon adenocarcinoma) and A-549 (pulmonary adenocarcinoma), as well as toward the non-tumor cell line HEK-293 (human embryonic kidney cells), Jurkat T-cells and human microvessel endothelial cells (HMEC-1).
(§3) In general, 5 × 10^3 (HT-29, A549, HMEC-1, Jurkat and HEK-293) cells per well were seeded in 96-well plates with 1:1 dilutions of the compounds in a volume of 100 μL of the cell media. The 3-(4,5-dimethylthiazol-2-yl)-2,5-diphenyltetrazolium bromide (MTT; Sigma Chemical Co.) dye exclusion assay was performed, and after 48 h (37 °C, 5% CO2 in a humid atmosphere), 10 μL of MTT (5 mg/mL in phosphate-buffered saline, PBS) was added to each well and incubated for 3 h at 37 °C. After the supernatant was discarded, we solved the formazan crystal in 100 µL of DMSO. The absorbance was then registered at 550 nm using a plate lector. For all concentrations of any compound, cell viability was expressed as the percentage of the ratio between the mean absorbance of the treated cells and the mean absorbance of the untreated cells. Three to five experiments were performed to establish the IC50 values (i.e., concentration half inhibiting cell proliferation, we used GraphPad Prism 7 software).

Jurkat T-cells = assay: MTT cell proliferation assay, Jurkat T-cells; format: cell-based; conditions: 48 h treatment
Description: as §2, §3

PD-L1 = target: T1, PD-L1 (Homo sapiens, UniProt Q9NZQ7); assay: PD-L1 relative quantification by flow cytometry in HT-29 cells; format: cell-based; conditions: for total PD-L1 (%) expression: HT-29 cells, 24 h, relative to DMSO control = 100
T1 construct: assess the effect of our new ureas on these two proteins only on the HT-29 cancer cell line through the use of flow cytometry; endogenous in cells; host or cells: HT-29
T1 sequence (Q9NZQ7 19-290): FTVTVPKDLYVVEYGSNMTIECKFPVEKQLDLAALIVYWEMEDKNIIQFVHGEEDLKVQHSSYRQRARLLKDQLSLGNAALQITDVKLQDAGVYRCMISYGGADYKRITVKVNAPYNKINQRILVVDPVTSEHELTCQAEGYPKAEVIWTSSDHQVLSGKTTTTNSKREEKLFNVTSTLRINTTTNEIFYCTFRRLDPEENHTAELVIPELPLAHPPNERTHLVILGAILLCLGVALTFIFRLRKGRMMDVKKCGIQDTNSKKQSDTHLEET
Description: (§4) The cells were incubated for a period of time of one day with doses of each of the selected compounds at two different doses: 20 and 100 µM concentrations.
(§5) The effects of the compounds on the target in the cancer cell lines compounds were tested using 20 and 100 µM doses. For that, 10^5 cells per well were seeded on a 12-well plate for 24 h with the corresponding dose of the tested compound in a total volume of 500 μL of cell media. To determine the total PD-L1 and VEGFR-2, the cells were collected and fixed with 4% in a PBS of formaldehyde. After this, a treatment with 0.5% in PBS Triton^TM X-100 permeabilized the membranes. Finally, the cells were treated with FITC Mouse monoclonal Anti-Human VEGFR-2 (ab184903) and Alexa Fluor® 647 Rabbit monoclonal Anti-PD-L1 (ab215251).
(§6) To determine surface PD-L1 and VEGFR-2, the assay used was similar to the above but avoided the permeabilization step (Triton^TM X-100).

VEGFR-2 = target: T2, VEGFR-2 (Homo sapiens, UniProt P35968); assay: VEGFR-2 relative quantification by flow cytometry in HT-29 cells; format: cell-based; conditions: HT-29 cells, 20 μM, 24 h, relative to DMSO control = 100
T2 construct: assess the effect of our new ureas on these two proteins only on the HT-29 cancer cell line through the use of flow cytometry; endogenous in cells; host or cells: HT-29
T2 sequence (P35968 20-1356): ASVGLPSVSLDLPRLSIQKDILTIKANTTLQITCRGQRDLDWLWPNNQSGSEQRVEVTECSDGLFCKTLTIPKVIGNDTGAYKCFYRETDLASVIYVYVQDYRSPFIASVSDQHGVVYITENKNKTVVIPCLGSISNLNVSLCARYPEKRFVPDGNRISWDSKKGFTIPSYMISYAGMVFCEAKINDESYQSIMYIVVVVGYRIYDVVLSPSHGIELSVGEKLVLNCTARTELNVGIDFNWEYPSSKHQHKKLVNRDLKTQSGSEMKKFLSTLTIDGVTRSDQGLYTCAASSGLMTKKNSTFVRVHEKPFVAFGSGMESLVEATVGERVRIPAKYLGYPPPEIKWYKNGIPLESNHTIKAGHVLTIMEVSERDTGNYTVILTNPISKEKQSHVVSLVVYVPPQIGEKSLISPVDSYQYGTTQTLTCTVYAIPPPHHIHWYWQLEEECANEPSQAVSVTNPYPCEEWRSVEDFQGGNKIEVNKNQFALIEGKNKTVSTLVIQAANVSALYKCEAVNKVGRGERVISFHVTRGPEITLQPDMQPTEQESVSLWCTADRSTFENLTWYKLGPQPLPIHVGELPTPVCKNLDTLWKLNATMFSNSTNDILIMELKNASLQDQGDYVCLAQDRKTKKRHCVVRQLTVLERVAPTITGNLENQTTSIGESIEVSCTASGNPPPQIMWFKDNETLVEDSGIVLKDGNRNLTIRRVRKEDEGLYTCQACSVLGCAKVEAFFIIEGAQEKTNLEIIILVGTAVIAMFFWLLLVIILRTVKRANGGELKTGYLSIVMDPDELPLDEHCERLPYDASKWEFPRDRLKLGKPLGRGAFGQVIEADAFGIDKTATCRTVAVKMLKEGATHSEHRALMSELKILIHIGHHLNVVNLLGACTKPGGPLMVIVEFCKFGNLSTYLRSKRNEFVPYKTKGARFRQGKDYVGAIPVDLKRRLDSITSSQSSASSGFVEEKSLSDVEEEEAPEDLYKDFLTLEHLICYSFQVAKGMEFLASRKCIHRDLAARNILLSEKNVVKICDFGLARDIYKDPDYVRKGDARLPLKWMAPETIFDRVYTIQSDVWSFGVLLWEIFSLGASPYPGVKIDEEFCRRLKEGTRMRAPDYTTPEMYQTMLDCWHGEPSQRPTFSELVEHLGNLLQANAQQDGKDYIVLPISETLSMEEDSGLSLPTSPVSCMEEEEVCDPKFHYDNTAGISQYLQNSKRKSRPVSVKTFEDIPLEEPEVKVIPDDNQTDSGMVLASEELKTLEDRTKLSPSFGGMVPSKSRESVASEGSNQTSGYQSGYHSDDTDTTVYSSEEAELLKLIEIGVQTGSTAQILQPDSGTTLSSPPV
Description: as §4
as §5, with “membranes.” for “membranes. Finally, the cells were treated with FITC Mouse monoclonal Anti-Human VEGFR-2 (ab184903) and Alexa Fluor® 647 Rabbit monoclonal Anti-PD-L1 (ab215251).”
as §6

[4] = tested on: HT-29 cells co-cultured with THP-1; assay: Cancer cell proliferation in co-cultures of HT-29 and THP-1; format: cell-based, human; conditions: 100 μM
Description: To establish the potential of the selected compounds as immunomodulator agents, we studied the effect of the selected compounds on HT-29 cell proliferation when co-cultured with human monocytic leukemia cell line THP-1. For the study, we used different proportions of cancer and immune cells. Standard protocol proportions were 1:5 cancer/immune cells. We include a test using a 2:1 proportion of HT-29 cells to THP-1 cells. The tests were performed for two periods of time: 24 and 48 h, using 100 μM doses of the selected compounds and BMS-8 as the reference compound.
(§7) To determine the action of the compounds on cancer cell proliferation in co-culture with immune cells, 10^5 or 2 × 10^5 of the HT-29 cells line were seeded in each well of 12-well plates and left at 37 °C for 24 h. Then, the cancer cells were treated with IFN-γ (10 ng/mL; human, Invitrogen®, Waltham, MA, USA) containing 5 × 10^5 or 10^5, respectively, of THP-1 cells per well and the corresponding compound at 100 μM or DMSO for the positive control. After 24 h/48 h of incubation, the supernatants were collected to establish the alive THP-1 cells using FSC and SCC flow cytometry. In addition, cancer cells were collected with trypsin, fixed with 4% in PBS paraformaldehyde and counted using flow cytometry.

[5] = tested on: THP-1 cells co-cultured with HT-29; assay: Immune cell proliferation in co-cultures of HT-29/THP-1; format: cell-based, human; conditions: 100 μM
Description: We also determined the effect of the selected compounds on the human monocyte cells THP-1 in the described co-cultures (see Table 6).
as §7

CD80 = CD80 detection on membrane of co-cultured THP-1; format: cell-based, human; conditions: 1:5 HT-29/THP-1; 24 h; relative to non-treated co-cultured THP-1
Text: (§8) Reducing the expression of CD11b has become a promising target for immune modulation in anticancer therapies. For that reason, we decided to study the effect of our compounds on CD11b in THP-1 cells co-cultured with HT-29. We also determined the relative amount of CD80, a common surface marker for monocytes.
(§9) The results are related to non-treated THP-1 cells when they were co-cultured with HT-29.
(§10) The action of the compounds on CDs in co-cultured THP-1 immune cells with cancer cell line HT-29 was tested by treating them with the compounds for 24 h/48 h (see Section 4.2.5). Surface CD11b and CD80 was determined by collecting THP-1 with trypsin, fixing with formaldehyde and staining with FITC Mouse monoclonal Anti-Human CD80 (Sigma-Aldrich SAB4700142) and Alexa Fluor® 647 Rabbit monoclonal Anti-CD11b (Merck #MABF366, Rahway, NJ, USA).

CD11b = CD11b detection on membrane of co-cultured THP-1; format: cell-based, human; conditions: 1:5 HT-29/THP-1; 24 h; relative to non-treated co-cultured THP-1
Text: as §8, §9, §10

[6] = tested on: human microvessel endothelial cells (HMEC-1); assay: MTT cell proliferation assay, HMEC-1; format: cell-based; conditions: 48 h treatment
Description: as §2, §3

HMEC-1 endothelial cells = assay: Microvessel formation inhibition assay on Matrigel; format: cell-based, human; conditions: HMEC-1 on Matrigel
Description: The antiangiogenic action of the selected compounds, as well as the reference compounds, was evaluated by determining the effect on the formation of new microvessels formed by HMEC-1 endothelial cells on a Matrigel matrix.
We used IBIDI μ-slide angiogenesis plates (IBIDI, Martins ried, Germany). The wells were coated with 15 μL of Matrigel® (10 mg/mL, BD Biosciences, San Jose, CA, USA) at 4 °C and incubated at 37 °C for at least 30 min. Afterward, the HMEC-1 cells were seeded at 2 × 10^4 cells/well in 25 μL of medium and were left for 30 min at 37 °C while they attached. Then, the compounds were added in serial doses in 25 μL of the medium, and after several hours (maximum 24 h) of incubation at 37 °C, pictures for the wells were taken to evaluate the formation of microvessels.

Structure (SMILES)	IC50 [1] [µM]	IC50 [2] [µM]	IC50 (Jurkat T-cells; Homo sapiens, Jurkat, 48 h) [µM]	melting point [°C]	IC50 (Jurkat T-cells) [µM]	IC50 [3] [µM]	IC50 ([6]; Homo sapiens, HMEC-1, 48 h) [µM]	also measured
Cc1c(COc2ccc(CN3CCCCC3C(=O)O)cc2Br)cccc1-c1ccccc1 (stereo not drawn) [BMS-8, reference compound]	19 ± 2	6 ± 1	> 100	–	–	60 ± 10	–	inhibition of PD-L1 expression (PD-L1; HT-29, total PD-L1, 20 μM): around 15%; total PD-L1 (%) expression (PD-L1; 20 μM): 82 ± 21%; total PD-L1 (%) expression (PD-L1; 100 μM): 67 ± 20%; total VEGFR-2 (%) expression (VEGFR-2): 86 ± 21%; HT-29 cancer cell proliferation in co-culture ([4]; 1:5 HT-29/THP-1, 24 h): 11 ± 6; HT-29 cancer cell proliferation in co-culture ([4]; 1:5 HT-29/THP-1, 48 h): 21 ± 3; HT-29 cancer cell proliferation in co-culture ([4]; 2:1 HT-29/THP-1, 24 h): 8 ± 1; HT-29 cancer cell proliferation in co-culture ([4]; 2:1 HT-29/THP-1, 48 h): 16 ± 2; THP-1 cell proliferation in co-culture ([5]; 1:5 HT-29/THP-1, 24 h): 158 ± 6; THP-1 cell proliferation in co-culture ([5]; 1:5 HT-29/THP-1, 48 h): 124 ± 0; THP-1 cell proliferation in co-culture ([5]; 2:1 HT-29/THP-1, 24 h): 385 ± 12; THP-1 cell proliferation in co-culture ([5]; 2:1 HT-29/THP-1, 48 h): 186 ± 10; % CD80 expression in membrane of THP-1 (CD80): 93 ± 3%; % CD11b expression in membrane of THP-1 (CD11b): 79 ± 5%
COc1ccc(CCCc2cccc(NC(=O)Nc3ccccc3)c2)cc1 [C.2]	25 ± 5	> 100	> 100	157 to 159	–	12 ± 1	> 100	–
COc1ccc(CCCc2cccc(NC(=O)Nc3ccccc3F)c2)cc1 [C.5]	58 ± 16	29 ± 5	> 100	152	–	24 ± 4	> 100	–
COc1ccc(CCCc2cccc(NC(=O)Nc3cccc(Cl)c3)c2)cc1 [C.7]	14 ± 3	19 ± 1	~20	143 to 147	17 ± 1	14 ± 3	~20	IC50 [6]: 18 ± 8 µM
COc1ccc(CCCc2cccc(NC(=O)Nc3ccccc3Cl)c2)cc1 [C.8]	47 ± 2	> 100	> 100	134 to 136	–	37 ± 8	> 100	–
COc1ccc(CCCc2cccc(NC(=O)Nc3ccccc3Br)c2)cc1 [C.11]	15 ± 4	20 ± 5	~20	137 to 140	26 ± 18	27 ± 4	~20	IC50 [6]: 25 ± 1 µM
COc1ccc(CCCc2cccc(NC(=O)Nc3cccc(OC)c3)c2)cc1 [C.13]	8 ± 5	18 ± 5	~20	107 to 110	24 ± 4	15 ± 3	~20	–
CNC(=O)c1cc(Oc2ccc(NC(=O)Nc3ccc(Cl)c(C(F)(F)F)c3)cc2)ccn1 [Sorafenib, sorafenib, reference compound]	17 ± 4	27 ± 2	–	–	–	5 ± 0.7	34 ± 3	effect on total PD-L1 (PD-L1; HT-29, at either of the tested doses (20 and 100 μM)): No significant effect; total PD-L1 (%) expression (PD-L1; 20 μM): 96 ± 49%; total PD-L1 (%) expression (PD-L1; 100 μM): 102 ± 10%; Minimum Active Conc. inhibiting microtube formation (HMEC-1 endothelial cells): 10 µM
CCN(CC)CCNC(=O)c1c(C)[nH]c(/C=C2\C(=O)Nc3ccc(F)cc32)c1C [Sunitinib, reference compound]	–	–	–	–	–	–	–	Minimum Active Conc. inhibiting microtube formation (HMEC-1 endothelial cells): 3 µM

Continued, in another order:

IC50 [1] [µM]	IC50 [2] [µM]	IC50 (Jurkat T-cells; Homo sapiens, Jurkat, 48 h) [µM]	melting point [°C]	IC50 (Jurkat T-cells) [µM]	Structure (SMILES)	IC50 [3] [µM]	IC50 ([6]; Homo sapiens, HMEC-1, 48 h) [µM]	also measured
> 100	> 100	> 100	154	–	COc1ccc(CCCc2cccc(NC(=O)Nc3cccc(F)c3)c2)cc1 [C.4]	22 ± 5	> 100	–
4 ± 1	20 ± 10	> 100	179 to 182	–	COc1ccc(CCCc2cccc(NC(=O)Nc3ccc(Cl)cc3)c2)cc1 [C.6]	4 ± 1	> 100	–
1.9 ± 0.6	7 ± 1	> 100	–	–	COc1ccc(CCCc2cccc(NC(=O)Nc3ccc(Br)cc3)c2)cc1 [C.9]	2.1 ± 0.2	> 100	–
11 ± 2	8 ± 2	~20	141 to 144	18 ± 7	COc1ccc(CCCc2cccc(NC(=O)Nc3cccc(Br)c3)c2)cc1 [C.10]	9 ± 4	~20	IC50 [6]: 17 ± 7 µM
